Measured values from patent US10307466B2, “Composition comprising sophorolipid, physiologically active substance and oil or fat, and method for producing the same” (SARAYA CO., LTD., priority 2014, dated 2019).

Assay: Binding to phosphatidylcholine-coated silica beads (TRANSIL Intestinal Absorption Kit)
Conditions: compared with the physiologically active substance alone taken as 1; for Relative amount of physiologically active substance bound to the beads, Example (sophorolipid): substance emulsified with sophorolipid; for Relative amount of physiologically active substance bound to the beads, Comparative Example (sucrose fatty acid ester): substance emulsified with sucrose fatty acid ester
Experimental: In the evaluation herein, the binding of substances to silica beads coated with a phospholipid (phosphatidylcholine) was compared. A higher binding indicates a higher cell membrane transport and a higher intestinal absorption.
An aqueous phase was prepared and the pH was adjusted with a pH adjuster to a pH value of 6. The aqueous phase and an oil phase were heated to 50 to 60° C. The aqueous phase was added to the oil phase. The mixture was stirred with a homogenizer (HG-200, As One Corporation) at a high speed of 10,000 rpm for 10 minutes to give an emulsion.
The affinity with phosphatidylcholine-coated silica beads (TRANSIL Intestinal Absorption Kit, SOVICELL GMBH) was assessed. A volume of 200 μl of PBS (phosphate buffered saline) containing the beads was added to each tube, and 20 μl of each of the compositions was added. The mixture was agitated with a test tube mixer for 12 minutes. The beads were allowed to settle, and the supernatant was collected and diluted to 10-fold. The fluorescence intensity of the supernatant was measured with a spectrophotometer (Hitachi F-2700, excitation wavelength: 494 nm, fluorescence wavelength: 521 nm).
A volume of 200 μl of PBS containing the beads was added to each tube, and 20 μl of each of the compositions was added. The mixture was agitated with a test tube mixer for 12 minutes. The beads were allowed to settle, and the supernatant was removed. The beads were washed with PBS, and 200 μl of methanol was added to elute oil red from the beads. The absorbance of the oil red solution in methanol was measured at 510 nm with an ultraviolet spectrophotometer (Shimadzu UV-1200). The relative amount of the pigment of Example 14 or Comparative Example 4 bound to the beads was calculated, with the obtained value of an oil red solution (Comparative Example 5) taken as 1.
A volume of 200 μl of PBS containing the beads was added to each tube, and 20 μl of each of the compositions was added. The mixture was agitated with a test tube mixer for 12 minutes. The beads were allowed to settle, and the supernatant was removed. The beads were washed with PBS, and 200 μl of methanol was added to elute tocopherol from the beads. The amount of tocopherol was measured by HPLC (Shimadzu LC-10A series). The relative amount of tocopherol of Example 15 or Comparative Example 6 bound to the beads was calculated, with the obtained value of a tocopherol solution (Comparative Example 7) taken as 1.
A volume of 200 μl of PBS containing the beads was added to each tube, and 20 μl of each of the compositions was added. The mixture was agitated with a test tube mixer for 12 minutes. The beads were allowed to settle, and the supernatant was removed. The beads were washed with PBS, and 200 μl of hexane was added to elute DHA from the beads. The amount of DHA was measured by gas chromatography (Shimadzu GC-2014 series).
The relative amount of DHA of Example 16 or Comparative Example 8 bound to the beads was calculated, with the obtained value of a DHA solution (Comparative Example 9) taken as 1.
GC was used for the analysis of eicosapentaenoic acid and linoleic acid. […] An atomic absorption spectrophotometer was used for the analysis of zinc gluconate, copper gluconate, and iron citrate.
The calculated value was expressed by the symbols A, B and C. The affinities of the physiologically active substances were assessed by comparing the cases where each physiologically active substance was emulsified with a sucrose fatty acid ester or the sophorolipid and where each of the physiologically active substances was used alone.

Substance | Relative amount of physiologically active substance bound to the beads, Example (sophorolipid) | Relative amount of physiologically active substance bound to the beads, Comparative Example (sucrose fatty acid ester)
Copper gluconate | B (affinity of not less than 2.0-fold and less than 5.0-fold) | C (affinity of less than 2.0-fold)
Iron citrate | B (affinity of not less than 2.0-fold and less than 5.0-fold) | C (affinity of less than 2.0-fold)
Zinc gluconate | B (affinity of not less than 2.0-fold and less than 5.0-fold) | C (affinity of less than 2.0-fold)
